Measured values reported in US12570651B2, “Quinazoline-2,4-dione derivatives as PARP inhibitors” (Suzhou Four Health Pharmaceuticals Co., Ltd., priority 2019, dated 2026).
Values belong to the compound of their own block, whether it stands above or below them.

Columns and labels:
PARP-1 = molecular target: T1, PARP-1 (Homo sapiens, UniProt P09874); experiment: PARP/Apoptosis Universal Colorimetric Assay Kit (ELISA), PARP inhibitory activity; type: biochemical; conditions: for IC50: Elise test methods April 2020, 0.5 U/well PARP-HSA Enzyme, read-out: IC50-values for different PARP-inhibitors, as calculated by ELISA; for IC50, comparison in words: ELISA
T1 construct: purchased BioTechne—R&D Systems 4677-096-K
T1 sequence (P09874 whole entry): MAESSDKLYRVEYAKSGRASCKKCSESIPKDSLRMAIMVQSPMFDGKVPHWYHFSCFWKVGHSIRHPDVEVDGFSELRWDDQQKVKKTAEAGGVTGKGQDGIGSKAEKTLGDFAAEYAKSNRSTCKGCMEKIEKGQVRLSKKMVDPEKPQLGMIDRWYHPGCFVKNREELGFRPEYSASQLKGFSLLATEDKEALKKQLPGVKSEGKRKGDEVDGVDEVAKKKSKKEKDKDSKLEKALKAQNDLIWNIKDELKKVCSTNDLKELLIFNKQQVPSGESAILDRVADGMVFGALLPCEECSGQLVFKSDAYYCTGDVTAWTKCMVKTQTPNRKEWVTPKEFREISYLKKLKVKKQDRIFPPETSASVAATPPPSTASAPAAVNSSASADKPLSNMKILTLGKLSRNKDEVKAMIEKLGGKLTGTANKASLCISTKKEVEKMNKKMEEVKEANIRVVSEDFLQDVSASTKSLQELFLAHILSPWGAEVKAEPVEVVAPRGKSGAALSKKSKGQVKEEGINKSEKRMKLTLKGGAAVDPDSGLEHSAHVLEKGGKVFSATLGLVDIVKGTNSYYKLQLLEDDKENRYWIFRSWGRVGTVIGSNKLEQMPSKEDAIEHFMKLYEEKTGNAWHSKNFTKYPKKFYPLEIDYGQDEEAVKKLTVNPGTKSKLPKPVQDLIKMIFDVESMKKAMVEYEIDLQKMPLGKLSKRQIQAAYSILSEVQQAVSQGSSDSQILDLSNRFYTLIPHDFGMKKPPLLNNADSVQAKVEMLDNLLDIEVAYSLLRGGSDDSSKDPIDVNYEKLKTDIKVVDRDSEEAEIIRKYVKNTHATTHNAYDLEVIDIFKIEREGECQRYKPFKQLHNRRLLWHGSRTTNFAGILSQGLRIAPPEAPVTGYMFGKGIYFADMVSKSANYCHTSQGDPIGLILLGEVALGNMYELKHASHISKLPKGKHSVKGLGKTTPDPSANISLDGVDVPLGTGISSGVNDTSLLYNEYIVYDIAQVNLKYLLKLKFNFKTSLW
Experimental: The inhibitors (13F, 14F, 13I-FL, 13F-FL, 14F-FL, 13I and 14I) were kept at −20° C., dissolved in DMSO at 20 mg/mL.
The PARP/Apoptosis Universal Colorimetric Assay Kit 4677-096-K was purchased from BioTechne—R&D Systems. This ELISA kit detects biotinylated poly (ADP-ribose) deposited by PARP-1 onto immobilized histones in a 96-well format. The addition of Strep-HRP (biotin-binding protein) and a colorimetric HRP substrate yields relative absorbance that correlates with PARP-1 activity. The kit is used for in vitro screening of candidate PARP-1 inhibitors and determination of IC50 values.
The protocol recommended by the provider was followed. A 1/10 serial dilution of the inhibitors (ranging from 500 μM to 0.5 nM, 7 data points in triplicate) was added to the designated wells. Wells incubated with 0.5 U/well of PARP-HSA Enzyme without inhibitor were used as the 100% activity reference point. Data was expressed as % of Maximal Activity and plotted in function of the log of concentration (M)) using Graph Pad Prism 8. IC50 values were determined using a dose-response-inhibition equation.

OE33 cells [1] = experiment: Cell binding by flow cytometry; type: cell-based
Experimental: (§1) 250 000 cells (FaDu, Cal27 or OE33) in suspension were incubated with 0.5 mL media, 0.5 mL 10 μM unlabeled 14F or 0.5 mL 10 μM Olaparib-analogue. After 30 min incubation at 37° C., the cells were washed once with 0.5 mL media and subsequently incubated with 0.5 mL 0.1 μM 14F-FL for 10 min at 37° C. The cells were then washed thrice with media (including 1×10 min incubation) and resuspended in FACS buffer (PBS+0.5% FBS+EDTA+N3). Finally, cells were analyzed on a flow cytometer (BD Celesta) in the GFP channel (ex 488 nm, em filter 510 nm). Data was analyzed via FlowJo software.

FaDu cells [2] = experiment: Cell binding by flow cytometry; type: cell-based
Experimental: as §1

Cal27 cells [3] = experiment: Cell binding by flow cytometry; type: cell-based
Experimental: as §1

OE33 cells [4] = experiment: In vitro cell binding study, confocal microscopy; type: cell-based
Experimental: (§2) 40 000 cells (FaDu, OE33, or Cal27) were plated in 24-well plates (Cell imaging plates with glass bottom, Eppendorf), and incubated for 2 days at 37° C. After removal of the medium, either 0.5 mL of media (Cond 1), 0.5 mL of 10 μM unlabeled PARPi (14F) (Cond 2) or 0.5 mL of 10 μM Olaparib (Cond 3) was added to the cells. After 30 minutes of incubation at 37° C., cells were washed with 1 mL of medium. Subsequently, 0.5 mL of 14F-FL at a final concentration of 0.1 μM was added and incubated for 15 min at 37° C. The cells were then washed thrice with 1 ml cold PBS, fixed with 1 mL 4% paraformaldehyde (VWR) for 7-10 minutes and washed again with 1 mL PBS. Finally, 0.5 mL of 1 μg/mL DAPI-staining solution (DAPI ready-made solution, Sigma) was added for at least 10 min to stain the cell nuclei.
(§3) High resolution bright field and fluorescent images of the cells were acquired on a confocal microscope (LSM800, Zeiss) with excitation and emission wavelengths of 405/455 nm for DAPI and 488/525 for BodipyFL (standard conditions). Images were taken with a Plan Apochromat 63×/1.4 oil objective. Images were analyzed with the Software ZenLITE (Zeiss).

FaDu cells [5] = experiment: In vitro cell binding study, confocal microscopy; type: cell-based
Experimental: as §2, §3

Cal27 cells [6] = experiment: In vitro cell binding study, confocal microscopy; type: cell-based
Experimental: as §2, §3

FaDu cells [7] = experiment: In vitro dissociation kinetics, confocal microscopy; type: cell-based
Experimental: 40 000 FaDu cells were plated in 24-well plates (Cell imaging plates with glass bottom, Eppendrof), and incubated for 2 days at 37° C. After removal of the medium, 0.5 mL of 14F-FL at a final concentration of 0.1 μM was added and incubated for 15 min at 37° C. The cells were then washed thrice with 1 ml cold PBS, and further incubated for 0 min, 30 min, 1 h, 2 h, 4 h or 24 h in medium at 37° C. After washing once with 1 mL cold PBS, the cells were fixed with 4% paraformaldehyde (VWR) and staining with DAPI as described above.
as §3

FaDu cells [8] = experiment: In vitro association kinetics, confocal microscopy; type: cell-based; conditions: 0.1 μM, 37° C.
Experimental: 40 000 FaDu cells were plated in 24-well plates (Cell imaging plates with glass bottom, Eppendorf), and incubated for 2 days at 37° C. After removal of the medium, 0.5 mL of 14F-FL at a final concentration of 0.1 μM was added and incubated for 2 min, 10 min, 20 min, 30 min, 45 min or 60 min at 37° C. The cells were then washed thrice with 1 ml cold PBS, fixed with 1 mL 4% paraformaldehyde (VWR) for 7-10 minutes and washed again with 1 mL PBS. Finally, 0.5 mL of 1 μg/mL DAPI-staining solution (DAPI ready-made solution, Sigma) was added for at least 10 min to stain the cell nuclei.
as §3

[9] = 10 μM pretreatment 30 min, then 0.1 μM 14F-FL
[10] = 0.1 μM 15 min, washed, medium at 37° C.
[11] = 0.1 μM 14F-FL, 10 min at 37° C.
[12] = 0.1 μM 14F-FL, 15 min at 37° C.

SMILES: CC1=CC(C)=[N+]2C1Cc1ccc(CCC(=O)N3CCN(C(=O)c4cc(Cn5c(=O)[nH]c(=O)c6cccnc65)ccc4F)CC3)n1[B-]2(F)F (stereo not shown) [Compound 13F-FL, 1-(3-(4-(3-(5,5-difluoro-7,9-dimethyl-5H-5I4,6I4-dipyrrolo[1,2-c:2′,1′-f][1,3,2]diazaborinin-3-yl)propanoyl)piperazine-1-carbonyl)-4-fluorobenzyl)pyrido[2,3-d]pyrimidine-2,4(1H,3H)-dione]
IC50 (PARP-1): 50 to 500 nM

SMILES: O=C(c1cc(Cn2c(=O)[nH]c(=O)c3cccnc32)ccc1I)N1CCN(C(=O)C2CCCC2)CC1 [Compound 13I, 1-(3-(4-(cyclopentanecarbonyl)piperazine-1-carbonyl)-4-iodobenzyl) pyrido [2,3-d]pyrimidine-2,4(1H,3H)-dione]
IC50 (PARP-1): > 500 nM

SMILES: CC1=CC(C)=[N+]2C1=Cc1ccc(CCC(=O)N3CCN(C(=O)c4cc(Cn5c(=O)[nH]c(=O)c6ccccc65)ncc4F)CC3)n1[B-]2(F)F [Compound 14F-FL, 1-((4-(4-(3-(5,5-difluoro-7,9-dimethyl-5H-5I4,6I4-dipyrrolo[1,2-c:2′,1′-f][1,3,2]diazaborinin-3-yl)propanoyl)piperazine-1-carbonyl)-5-fluoropyridin-2-yl)methyl)quinazoline-2,4(1H,3H)-dione]
retention on target after binding (FaDu cells [7]; [10]): remains bound to its target for a few hours | time from which the signal in the nucleus gradually decreases (FaDu cells [7]; [10]): 2 to 4 h | signal in the nuclei after 24 h (FaDu cells [7]; 24 h in medium at 37° C. after washing): some signal can still be observed | cell binding, flow cytometry (OE33 cells [1]; [11]): significant binding | cell binding, flow cytometry (FaDu cells [2]; [11]): significant binding | cell binding, flow cytometry (Cal27 cells [3]; [11]): significant binding | incubation time to maximal binding (FaDu cells [8]): ≤ 10 min | fluorescent signal in the nuclei (OE33 cells [4]; [12]): intense green fluorescent signal | fluorescent signal in the nuclei (FaDu cells [5]; [12]): intense green fluorescent signal | fluorescent signal in the nuclei (Cal27 cells [6]; [12]): intense green fluorescent signal | IC50, comparison in words (PARP-1): Best IC50-values | IC50 (PARP-1): < 50 nM

SMILES: O=C(c1cc(Cn2c(=O)[nH]c(=O)c3ccccc32)ncc1I)N1CCN(C(=O)C2CCCC2)CC1 [Compound 14I, 1-((4-(4-(cyclopentanecarbonyl)piperazine-1-carbonyl)-5-iodopyridin-2-yl)methyl)quinazoline-2,4(1H,3H)-dione]
IC50 (PARP-1): > 500 nM

Further lines, with some results ahead:

IC50 (PARP-1): 50 to 500 nM
SMILES: O=C(c1cc(Cn2c(=O)[nH]c(=O)c3cccnc32)ccc1F)N1CCN(C(=O)C2CCCC2)CC1 [Compound 13F, 1-(3-(4-(cyclopentanecarbonyl)piperazine-1-carbonyl)-4-fluorobenzyl)pyrido[2,3-d]pyrimidine-2,4(1H,3H)-dione]

IC50 (PARP-1): > 500 nM
SMILES: CC1=CC(C)=[N+]2C1Cc1ccc(CCC(=O)N3CCN(C(=O)c4cc(Cn5c(=O)[nH]c(=O)c6cccnc65)ccc4I)CC3)n1[B-]2(F)F (stereo not shown) [Compound 13I-FL, 1-(3-(4-(3-(5,5-difluoro-7,9-dimethyl-5H-5I4,6I4-dipyrrolo[1,2-c:2′,1′-f][1,3,2]diazaborinin-3-yl)propanoyl)piperazine-1-carbonyl)-4-iodobenzyl)pyrido[2,3-d]pyrimidine-2,4(1H,3H)-dione]

IC50, comparison in words (PARP-1): Best IC50-values | IC50 (PARP-1): < 50 nM
SMILES: O=C(c1cc(Cn2c(=O)[nH]c(=O)c3ccccc32)ncc1F)N1CCN(C(=O)C2CCCC2)CC1 [Compound 14F, 1-((4-(4-(cyclopentanecarbonyl)piperazine-1-carbonyl)-5-fluoropyridin-2-yl)methyl)quinazoline-2,4(1H,3H)-dione]
14F-FL binding after pretreatment with excess unlabeled compound, flow cytometry (OE33 cells [1]; [9]): decreased the binding | 14F-FL binding after pretreatment with excess unlabeled compound, flow cytometry (FaDu cells [2]; [9]): decreased the binding | 14F-FL binding after pretreatment with excess unlabeled compound, flow cytometry (Cal27 cells [3]; [9]): decreased the binding | 14F-FL signal after pretreatment with excess of unlabeled analogue (OE33 cells [4]; [9]): no green fluorescent signal | 14F-FL signal after pretreatment with excess of unlabeled analogue (FaDu cells [5]; [9]): no green fluorescent signal | 14F-FL signal after pretreatment with excess of unlabeled analogue (Cal27 cells [6]; [9]): no green fluorescent signal
